“Also recorded” adds a separate entry of the source. Where two headings read alike, the source gives them in different places.
Columns and labels:
[1] = tested on: SNF5 mutant cell lines A204, G401 and G402; assay: Response of SNF5 mutant versus wild type cell lines; format: cell-based
[2] = tested on: G401 SNF mutant cell line; assay: Soft agar growth, 7 days; format: cell-based; conditions: after 7 days
Text: FIGS. 3A-3D are a series of bar graphs showing that G401 SNF mutant cell line is responding to Compound D after 7 days in soft agar compared to wild type cells RD.

[3] = tested on: LNCAP prostate cancer cells; assay: LNCAP cell growth inhibition in vitro; format: cell-based
[4] = tested on: ATRX mutant SCLC lines NCI-H446, SW1271 and NCI-H841; assay: Response of ATRX mutant SCLC lines; format: cell-based
Text: FIGS. 8A-8C are three graphs establishing that ATRX mutant SCLC lines NCI-H446 (FIG. 8A), SW1271 (FIG. 8B) and NCI-H841 (FIG. 8C) are responding to Compound D.

SCLC line NCI-H841 = assay: Morphology of SCLC line by microscopy; format: cell-based; conditions: 4.1E-02 uM or 3.3 uM
Medulloblastoma cells = assay: Medulloblastoma cell growth, total cells per milliliter counted; format: cell-based; conditions: versus DMSO control, counted each day for 10 days; tazemetostat 0.5, 2 and 6 μM
Text: The total cells per milliliter of culture were counted each day for 10 days.

[5] = tested on: primary medulloblastoma cells; conditions: for primary medulloblastoma cell growth ex vivo: slice culture treated for 4 days
Experimental: A slice culture of medulloblastoma was freshly isolated from a subject.
A patient having medulloblastoma underwent surgery to remove a slice of tumor tissue for testing. The medulloblastoma slice was cultured ex vivo on tissue supporting inserts (FIG. 28A). […] Following the treatment period, the cells of the slice culture were treated with BrdU for 4 hours prior to disaggregation and sorting by flow cytometry.

[6] = Oral bioavailability (general statement); conditions: in vivo
[7] = tested on: G401 SNF5 mutant cell line; assay: CellTiter-Glo Luminescent Cell Viability Assay after 7 day pretreatment; format: cell-based; conditions: pretreated for 7 days, replated on day 0
Experimental: FIGS. 4A-4D are four graphs showing that G401 SNF5 mutant cell line is sensitive to Compound A in vitro. Wild type cell line SJCRH30 (FIG. 4A) and RD (FIG. 4C) and SNF5 mutant cell line G401 (FIG. 4B) and A204 (FIG. 4D) were pretreated for 7 days with indicated concentrations of Compound A and replated on day 0. Cell viability was determined by CellTiter-Glo® Luminescent Cell Viability Assay.

[8] = tested on: G401 xenografts (malignant rhabdoid tumor model); assay: G401 xenograft tumor regression; format: in vivo, SCID mice; conditions: twice daily (BID) administration at the indicated doses; listed as Compound A
Experimental: Data represent the mean values±SEM (n=8). Compound administration was stopped on day 28. (FIG. 5C) EZH2 target inhibition in G401 xenograft tumor tissue collected from a parallel cohort of mice on day 21. […] Horizontal lines represent group mean values. BLLQ=below lower limit of quantification. (FIG. 5D, FIG. 5E) Immunohistochemical staining of tumor histone methylation of tumor samples from the vehicle treated (FIG. 5D) and Compound A treated (FIG. 5E) (at 125 mg/kg) mice.
Data are presented as mean values±SEM (n=16 until day 21, n=8 from day 22 to 60). […] (FIG. 15C) Tumor weights of 8 mice euthanized on day 21. ****p<0.0001, Fisher's exact test. (FIG. 15D) Plasma was collected 5 min before and 3 h after dosing of Compound A on day 21, and compound levels were measured by LC-MS/MS. Animals were euthanized, and tumors were collected 3 h after dosing on day 21. Tumor homogenates were generated and subjected to LC-MS/MS analysis to determine Compound A concentrations. Note that tumor compound levels could not be determined from all animals especially in the higher dose groups because the xenografts were too small on day 21. Dots represent values for the individual animals; horizontal lines represent group mean values.
Compound administration was stopped on day 28 and tumors were allowed to re-grow until they reached 2000 mm^3 (data shown as mean values±SEM, n=8). […]

cellular H3K27Me3 = assay: Cellular histone methylation in G401 and RD cells; format: cell-based
Experimental: FIGS. 10A-10C are a series of graphs showing effects of Compound A on cellular global histone methylation and cell viability.
(FIG. 12A) Cell lysates were analyzed by immunoblot with antibodies specific to SMARCB1, EZH2 and Actin (loading control). […] Cells were incubated with Compound A for 4 days, and acid-extracted histones were analyzed by immunoblot.

[9] = tested on: SMARCB1-deleted MRT cells (G401); assay: Cell cycle analysis (flow cytometry) and apoptosis (TUNEL assay); format: cell-based; conditions: 1 μM, up to 14 days
Experimental: Cell cycle analysis (by flow cytometry) and determination of apoptosis (by TUNEL assay) in RD (FIG. 13A) or G401 cells (FIG. 13B) during incubation with either vehicle or 1 μM Compound A for up to 14 days. […] Data are represented as mean values±SEM (n=2). The DMSO control values shown are the average±SEM from each time point. Cells were split and re-plated on days 4, 7 and 11 at the original seeding density.

SMARCB1 regulated genes = assay: Gene expression by qPCR and cell morphology; format: cell-based; conditions: 1 μM; 2, 4 and 7 days (G401, RD); 14 days (G402)
Experimental: (FIG. 14A) Basal expression of SMARCB1 regulated genes in G401 SMARCB1-deleted cells, relative to RD control cells (measured by qPCR, n=2). (FIGS. 14B-14L) G401 and RD cells were incubated with either DMSO or 1 μM Compound A for 2, 4 and 7 days. Gene expression was determined by qPCR (n=2) and is expressed relative to the DMSO control of each time point. FIGS. 14B-14K correspond to genes GLI1, PTCh1, DOCK4, CD133, PTPRK, BIN1, CDKN1A, CDKN2A, EZH2, and MYC, respectively. (FIG. 14L) G402 cells were incubated with either DMSO (left panel) or 1 μM Compound A (right panel) for 14 days. Cells were split and re-plated to the original seeding density on day 7.

ATRT = ATRT in vivo, percent survival
[10] = Phase 1 clinical trial, observed steady-state PK in adults; conditions: for CL/F Observed: adults, steady-state; for AUC(0-t) / Cmax: human, in vivo, po
[11] = PBPK model (Gastroplus) prediction of adult steady-state PK; conditions: adults, 100-1600 mg BID
[12] = tested on: atypical teratoid rhabdoid tumors (ATRTs); assay: ATRT cell self-renewal; format: cell-based; conditions: up to 7 or 10 days post-treatment
Text: FIG. 24A is a series of photographs showing control or EZH2 inhibitor-treated (DNZep-treated) atypical teratoid rhabdoid tumors (ATRTs) at 1, 3, 5, and 7 days post-treatment.
FIG. 24D is a series of photographs showing control or EZH2 inhibitor-treated (DNZep-treated) atypical teratoid rhabdoid tumors (ATRTs) at 3, 5, 8 and 10 days post-treatment.

BT-16 ATRT cell line = assay: Surviving fraction after 2Gy radiation; format: cell-based
Text: FIG. 25A is a pair of graphs showing a surviving fraction of untreated or DZNEP-treated ATRT cells (from a BT-16 ATRT cell line) exposed to 2Gy radiation.

UPN737 ATRT cell line = assay: Surviving fraction after 2Gy radiation; format: cell-based
Text: FIG. 25B is a pair of graphs showing a surviving fraction of untreated or DZNEP-treated ATRT cells (from a UPN737 ATRT cell line, “737”) exposed to 2Gy radiation.

[13] = 500 nM or 2 μM for 4 days, versus untreated control

## CCN(c1cc(-c2ccc(CN3CCOCC3)cc2)cc(C(=O)NCc2c(C)cc(C)[nH]c2=O)c1C)[C@H]1CC[C@H](N(C)C)CC1 [Compound D]
[1]
  response of SNF5 mutant cell lines compared to wild type cell lines RD and SJCRH30: selectively respond
[2]
  response in soft agar compared to wild type cells RD: responding
[3]
  cell growth inhibition: dose-dependent cell growth inhibition
[4]
  response of ATRX mutant SCLC lines: responding
SCLC line NCI-H841
  cell morphology: changes morphology

## CCN(c1cc(-c2ccc(CN3CCOCC3)cc2)cc(C(=O)NCc2c(C)cc(C)[nH]c2=O)c1C)C1CCOCC1 [tazemetostat]
Medulloblastoma cells
  medulloblastoma cell growth (total cells per milliliter): significant decrease; also recorded: decrease medulloblastoma cell growth
[5]; [13]
  proportion of cells in G0/G1 stage: increased proportion
  proportion of cells in G2/M stage: decreased proportion
[5]
  primary medulloblastoma cell growth ex vivo: inhibits proliferation/growth of medulloblastoma cells
[5]; listed as Tazemetostat
  primary medulloblastoma cell growth ex vivo: decreases primary medulloblastoma cell growth ex vivo
[6]
  oral bioavailability: orally bioavailable
[7]
  sensitivity of cell viability in vitro: sensitive
[8]
  tumor response in G401 xenografts: durable regressions; also recorded: Tumor regressions; also recorded: eradicates SMARCB1-deleted MRT xenografts
Cellular H3K27Me3
  cellular H3K27Me3 levels: Concentration-dependent inhibition
Cellular H3K27Me3; 4 days, immunoblot
  specificity for inhibition of cellular histone methylation: Selective inhibition of cellular H3K27 methylation
[9]
  G1 arrest: G1 arrest was observed as of day 7
[9]; TUNEL
  apoptosis: apoptosis was induced as of day 11
SMARCB1 regulated genes
  expression of SMARCB1 regulated genes and cell morphology: induces changes in expression of SMARCB1 regulated genes and cell morphology
ATRT
  ATRT in vivo (percent survival versus vehicle): decreases ATRT in vivo
[10]; 100 mg BID p.o. (n = 6)
  CL/F Observed: 309 L/h
[10]; 200 mg BID p.o. (n = 3)
  CL/F Observed: 198 L/h
[10]; 400 mg BID p.o. (n = 3)
  CL/F Observed: 264 L/h
[10]; 800 mg BID p.o. (n = 6)
  CL/F Observed: 152 L/h
[10]; 1600 mg BID p.o. (n = 6)
  CL/F Observed: 180 L/h
[10]; 100 mg
  AUC(0-t): 348 ng·h/mL
  Cmax: 99 ng/mL
[10]; 200 mg
  AUC(0-t): 1010 ng·h/mL
  Cmax: 237 ng/mL
[10]; 400 mg
  AUC(0-t): 1510 ng·h/mL
  Cmax: 313 ng/mL
[10]; 800 mg
  AUC(0-t): 4630 ng·h/mL
  Cmax: 818 ng/mL
[10]; 1600 mg
  AUC(0-t): 7880 ng·h/mL
  Cmax: 1480 ng/mL
[11]
  deviation of predicted mean steady-state AUC0-t from observed: ≤ 30%
  deviation of predicted oral clearance (CL/F) from observed: ≤ 30%

## CC[C@H](C)n1cc(C)c2c(C(=O)NCc3c(C)cc(C)[nH]c3=O)cc(-c3ccc(N4CCNCC4)nc3)cc21 [GSK-126, reference compound]
Medulloblastoma cells
  medulloblastoma cell growth (total cells per milliliter): decrease medulloblastoma cell growth

## CCCc1cc(C)[nH]c(=O)c1CNC(=O)c1cc(-c2ccc(N3CCN(C(C)C)CC3)nc2)cc2c1cnn2C(C)C [UNC 1999, reference compound]
Medulloblastoma cells
  medulloblastoma cell growth (total cells per milliliter): decrease medulloblastoma cell growth

## Nc1nccc2c1ncn2C1C=C(CO)C(O)C1O (centres unmarked) [DNZep]
[12]
  ATRT cell self-renewal: suppresses ATRT cell self-renewal
BT-16 ATRT cell line
  radio-sensitization (surviving fraction): radio-sensitizes ATRT
UPN737 ATRT cell line
  radio-sensitization (surviving fraction): radio-sensitizes ATRT

Reference: US20210008075A1, “PEDIATRIC DOSING FOR TREATMENT OF CANCER WITH AN EZH2 INHIBITOR” (Epizyme, Inc., priority 2015, published 2021)
